# Test results from ChEMBL document CHEMBL3507680, “University of Dundee, Gates Library screen for HepG2 cell viability”.
# Assay: Human HepG2 cell viability assay in 384 well format
# Assay type: toxicity, cell-based
# Parameters: dose 125 nL, time 70.5 hour; cytotoxicity at 70.5 h: concentration not given beside the values
# Conditions: HepG2 cells, read-out: Inhibition
row,Compound,cytotoxicity at 70.5 h [%]
1,c1ccc(COC2CCN(c3cncc(-n4cccn4)n3)CC2)cc1,-9.06
2,CC(C)C(=O)N1CCOC[C@H](Oc2ccc(C(F)(F)F)cc2)C1,-1.93
3,CN(Cc1cccs1)C(=O)CNC1CCc2ncnn2C1 (configuration not stated),-5.9
4,O=C(CCCNc1ncccn1)N1CCCC(n2ccnc2)C1 (configuration not stated),-3.12
5,CC(=O)N1CCN(c2cc(N(C)C)cnn2)CC1,-3.71
6,Cc1nc(N2CCCCC2)ncc1-c1cc(=O)[nH]c(N2CCCC2)n1,2.6
7,CN(CC(=O)Nc1cccnc1)C1CCCN(c2cccnn2)C1 (configuration not stated),31.2
8,CSc1nccc(N2CCC3(CCCN(Cc4cccc(C)c4)C3)C2)n1 (configuration not stated),-0.65
9,N#Cc1cccc(CN2CCC3(CC2)CC(c2ccncc2)C(=O)N3)c1 (configuration not stated),-0.0024
10,CN(c1ncc(C(N)=O)cc1Cl)C1CCC(c2ccccc2)CC1 (configuration not stated),-3.58
11,Cc1ccc(CNC(=O)Nc2nnc(C(C)C)s2)n1C,-4.19
12,C[C@H](N)Cn1nc(-c2cccs2)oc1=O,-1.53
13,CS(=O)(=O)N1CCOCC2(CCN(C(=O)c3ccco3)CC2)C1,-8.61
14,O=C(CCN1CCc2cncnc2C1)N1CCc2sccc2C1,-1.14
15,CCNC(=O)CN1CCC(OCC2CCCO2)CC1 (configuration not stated),-6.63
16,Fc1ccc(OC2CCN(Cc3nnc(-c4ccco4)o3)CC2)cc1,18.9
17,CC(C)c1nc(N2CC[C@@H](N(C)CCc3ccccn3)[C@H](O)C2)no1,13.3
18,CC(C)(C)CNC(=O)c1ccc(C(=O)O)nc1,-9.27
19,Cc1cc(C)c(C(=O)N(C)CCN(C)C(=O)c2[nH]c(C)cc2C)[nH]1,-6.06

row,Compound,cytotoxicity at 70.5 h [%]
1,CCS(=O)(=O)c1ccccc1N1CCC(NC(=O)C(C)C)CC1,5.03
2,Cn1cnnc1C1CCCN(C(=O)NCc2ccccc2)C1 (configuration not stated),1.38
3,CC(=O)NCc1nn(C)c2c1CN(Cc1ccsc1)C2,-6.78
4,CC(C)(O)c1cn(C2CCN(C(=O)CCC3CCCC3)CC2)nn1,27
5,Cc1nn(C)c(C)c1CNCc1ccc(N2CCOCC2)nc1,3.85
6,O=C(O)c1cccc2c(Br)cccc12,-0.692
7,CCCc1nc(C(=O)N2CCCn3nc(CCC(=O)O)cc3C2)cs1,-9.99
8,CS(=O)(=O)CCC(=O)N1C[C@@H]2CC[C@H](C1)N(Cc1ccccc1)C2=O,-8.53
9,CCc1nc(C2CCCN(C(=O)c3cccnc3O)C2)no1 (configuration not stated),-0.758
10,Cn1ncc(C(=O)OCC2CC(=O)N(c3ccccc3)C2)c1C(F)F (configuration not stated),-9.29
11,CC(C)(C)n1ncc2c(=O)n(CC(=O)NCc3ccco3)cnc21,-11.6
12,Cc1cnc(N2CCN(C)CC2)nc1-c1ccnn1C,-13.9
13,Cc1nc(N2CCN(C)CC2)ncc1C(=O)N1CC(C)(C)C(C)(O)C1 (configuration not stated),14.1
14,CN1CC(NC(=O)CCOc2cccc(Cl)c2)CC1=O (configuration not stated),17.2
15,N#Cc1ccc(SCCC(=O)NC(N)=O)cc1,-12.4
16,Cc1ccoc1-c1nnc(CN2CCn3c(nnc3C3CC3)C2)o1,31.2
17,Fc1cccc(-c2nnn3c2COC(CNCc2nccs2)C3)c1 (configuration not stated),14.6
18,CSCC1CCCN1CCc1ccncc1 (configuration not stated),27.5
19,CC(C)OCCNC1(c2ccc(F)cc2)CCOCC1,-3.2

row,Compound,cytotoxicity at 70.5 h [%]
1,O=C(Cc1ccc2c(c1)CCO2)N1CCCC1c1noc(C2CC2)n1 (configuration not stated),9.85
2,Cn1cc(C2CCCN2C(=O)Cn2ccc3ccccc32)cn1 (configuration not stated),-0.47
3,COCCN1CCN(Cc2nccs2)[C@H]2CS(=O)(=O)C[C@H]21,-2.69
4,FC(F)(F)CN1CCC(CNc2nc3ccccc3o2)C1 (configuration not stated),1.85
5,Cc1nc(CN2CCCC(NCc3cccc(C(N)=O)c3)C2)no1 (configuration not stated),-3.45
6,CC(=O)N(Cc1ncc(C)o1)C1CCN(CCCc2cnn(C)c2)C1 (configuration not stated),13.3
7,Cc1cc(N2CCC(N(C)C(=O)c3ccc(C#N)cc3)CC2)nc(C)n1,-7.65
8,CC(C)OC(=O)CNC(=O)Nc1ccc(-c2nc(C(C)C)no2)cc1,2.82
9,COCc1nn(C)c2c1CN(C(=O)c1ccno1)CC2,-9.37
10,CN(Cc1ccc(-n2cccn2)cc1)CC1CCCN1c1cccnn1 (configuration not stated),-10.7
11,CCCc1cc(=O)n(CC(N)=O)c(-n2nc(C)cc2C)n1,-4.18
12,Cc1cc(NC(=O)CCNC(C)(C)c2nc(C)c(C)s2)no1,-5.95
13,CS(=O)(=O)NCC1CCCN(C(=O)c2ccc3c(c2)CCC3)C1 (configuration not stated),3.24
14,CN(C)CCNc1cc(-c2ncccc2C(F)(F)F)c2cc[nH]c2n1,-6.02
15,Cc1nc(C2CCCN(C(=O)Cn3ccccc3=O)C2)no1 (configuration not stated),-9.54
16,COCCNC(=O)N1CCN(C(C)C(=O)NC(C)C)CC1 (configuration not stated),-5.13
17,Cc1nc(CN2CCCC(N(C)Cc3nc(C)c(C)o3)C2)no1 (configuration not stated),-2.87
18,CN(C)S(=O)(=O)NCc1cccnc1Oc1ccccc1,-6.53
19,CCc1nccn1C1CCCN(C(=O)c2ccc(N(C)C)nn2)C1 (configuration not stated),-7.7
